The target of experiment [1] is T1, Alpha-synuclein (Homo sapiens, UniProt P37840). Put plainly: Inhibition of alpha-Synuclein (unknown origin) aggregation incubated for 72 hrs by ThT-based fluorescence analysis.
Experiment [2] concerns the target T1, Alpha-synuclein. Put plainly: Inhibition of alpha-Synuclein (unknown origin) aggregation assessed as alteration in typical alpha-Syn "S" shaped aggregation kinetics by measuring reduction in aggregation rate in elongation phase at 30 uM measured for 86 hrs by ThT-based fluorescence analysis.
Experiment [3] has as its target T1, Alpha-synuclein. Put plainly: Inhibition of alpha-Synuclein (unknown origin) aggregation assessed as alteration in typical alpha-Syn "S" shaped aggregation kinetics by measuring weakening of primary nucleation in lag phase at 30 uM measured for 86 hrs by ThT-based fluorescence analysis.
Experiment [4] has as its target T1, Alpha-synuclein. Put plainly: Inhibition of alpha-Synuclein (unknown origin) aggregation assessed as alteration in typical alpha-Syn "S" shaped aggregation kinetics by measuring reduction in oligomeric nuclei in lag phase at 30 uM measured for 86 hrs by ThT-based fluorescence analysis.

The results in this text go back to ChEMBL document CHEMBL5329214, “4-Arylidene curcumin derivatives in vitro inhibit α-Synuclein aggregation and disaggregate the preformed fibril” (Bioorg Med Chem, 2023).

Activity calls are given as the source filed them. The calls are words filed in the database; no cut-off is given here.

Turning to `COc1cc(/C=C/C(=O)CC(=O)/C=C/c2ccc(O)c(OC)c2)ccc1O` [CURCUMIN], in experiment [1], half-maximal inhibition (IC50) was put at 3.3 µM.
For `COc1cc(/C=C/C(=O)C(=Cc2ccc(O)cc2)C(=O)/C=C/c2ccc(O)c(OC)c2)ccc1O`, the IC50 (as a rule, the concentration at which inhibition is half-maximal) in experiment [1] came to 4.39 µM. Besides, the inhibition entry in experiment [2], in experiment [3] and in experiment [4] was “Active” each time.
